# Reference: US6395896B2, “Pyridazine derivatives, manufacturing method and related composition” (Shiseido Co., Ltd., priority 1999, dated 2002)
# Assay: Pigment stabilization effect (sequestering agent combination)
# Parameters: key to Sunlight exposure (80 MJ) Appearance: A: No change; B: No almost change; C: Yes change; key to Sunlight exposure (80 MJ) ΔE: color difference ΔE in Lab space vs. color before sunlight exposure
# Settings: for Sunlight exposure (80 MJ) Appearance / Sunlight exposure (80 MJ) ΔE: amounts wt %
# Procedure: First of all, the photostabilization effect and appearance changes of a composition for each pigment were studied by the following evaluation formulation.
# Each test sample was prepared. Observation of appearance changes (visual evaluation) and measurement of color difference (ΔE) were carried out for samples exposed to sunlight (around 80 MJ).
# Color difference was measured by Lab coordinate system with spectrophotometer. Color difference was calculated based on the color before sunlight exposure. Namely, from the measured value (L1,a1,b1) before sunlight exposure, color difference (ΔE) was calculated by following formula.
# [1] = colorant Blue No. 1 0.0001, photostabilizer 0.02 + Sodium metaphosphate 0.03
# [2] = colorant Blue No. 1 0.0001, photostabilizer 0.02 + Trisodium ethylenediamine tetraacetate 0.03
# [3] = colorant Blue No. 1 0.0001, photostabilizer 0.02 + Trisodium hydroxyethyl ethylenediamine triacetate 0.03
# [4] = colorant Blue No. 1 0.0001, photostabilizer 0.02, no sequestering agent
# [5] = colorant Green No. 3 0.0001, photostabilizer 0.02 + Sodium metaphosphate 0.03
# [6] = colorant Green No. 3 0.0001, photostabilizer 0.02 + Sodium polyphosphate 0.03
# [7] = colorant Green No. 3 0.0001, photostabilizer 0.02 + Trisodium ethylenediamine tetraacetate 0.03
# [8] = colorant Green No. 3 0.0001, photostabilizer 0.02, no sequestering agent
# [9] = colorant Red No. 106 0.0001, photostabilizer 0.02 + Sodium metaphosphate 0.02
# [10] = colorant Red No. 106 0.0001, photostabilizer 0.02 + Sodium polyphosphate 0.02
# [11] = colorant Red No. 106 0.0001, photostabilizer 0.02 + Trisodium ethylenediamine tetraacetate 0.02
# [12] = colorant Red No. 106 0.0001, photostabilizer 0.02, no sequestering agent
# [13] = colorant Red No. 213 0.0001, photostabilizer 0.03 + Sodium metaphosphate 0.05
# [14] = colorant Red No. 213 0.0001, photostabilizer 0.03 + Trisodium ethylenediamine tetraacetate 0.05
# [15] = colorant Red No. 213 0.0001, photostabilizer 0.03 + Trisodium hydroxyethyl ethylenediamine triacetate 0.05
# [16] = colorant Red No. 213 0.0001, photostabilizer 0.03, no sequestering agent
# [17] = colorant Red No. 227 0.0001, photostabilizer 0.01 + Sodium metaphosphate 0.02
# [18] = colorant Red No. 227 0.0001, photostabilizer 0.01 + Trisodium ethylenediamine tetraacetate 0.02
# [19] = colorant Red No. 227 0.0001, photostabilizer 0.01 + Trisodium hydroxyethyl ethylenediamine triacetate 0.02
# [20] = colorant Red No. 227 0.0001, photostabilizer 0.01, no sequestering agent
# [21] = colorant Red No. 401 0.001, photostabilizer 0.02 + Sodium metaphosphate 0.1
# [22] = colorant Red No. 401 0.001, photostabilizer 0.02 + Sodium polyphosphate 0.1
# [23] = colorant Red No. 401 0.001, photostabilizer 0.03 + Trisodium ethylenediamine tetraacetate 0.1
# [24] = colorant Red No. 401 0.001, photostabilizer 0.03, no sequestering agent
# [25] = colorant Yellow No. 5 0.001, photostabilizer 0.01 + Sodium metaphosphate 0.02
# [26] = colorant Yellow No. 5 0.001, photostabilizer 0.01 + Sodium polyphosphate 0.02
# [27] = colorant Yellow No. 5 0.001, photostabilizer 0.01 + Trisodium ethylenediamine tetraacetate 0.02
# [28] = colorant Yellow No. 5 0.001, photostabilizer 0.01, no sequestering agent
# [29] = colorant Yellow No. 203 0.001, photostabilizer 0.01 + Sodium metaphosphate 0.02
# [30] = colorant Yellow No. 203 0.001, photostabilizer 0.01 + Trisodium ethylenediamine tetraacetate 0.02
# [31] = colorant Yellow No. 203 0.001, photostabilizer 0.01 + Trisodium hydroxyethyl ethylenediamine triacetate 0.02
# [32] = colorant Yellow No. 203 0.001, photostabilizer 0.01, no sequestering agent
# [33] = colorants Red No. 106 0.00001 + Yellow No. 5 0.0001, photostabilizer 0.02 + Trisodium ethylenediamine tetraacetate 0.02
# [34] = colorants Red No. 106 0.00001 + Yellow No. 5 0.0001, photostabilizer 0.02, no sequestering agent
# [35] = colorants Red No. 106 0.00001 + Yellow No. 203 0.0001, photostabilizer 0.02 + Trisodium hydroxyethyl ethylenediamine triacetate 0.02
# [36] = colorants Red No. 106 0.00001 + Yellow No. 203 0.0001, photostabilizer 0.02, no sequestering agent
# [37] = colorants Red No. 213 0.00001 + Blue No. 1 0.00001, photostabilizer 0.02 + Trisodium hydroxyethyl ethylenediamine triacetate 0.03
# [38] = colorants Red No. 213 0.00001 + Blue No. 1 0.00001, photostabilizer 0.02, no sequestering agent
# [39] = colorants Red No. 227 0.0001 + Yellow No. 5 0.0001, photostabilizer 0.02 + Trisodium ethylenediamine tetraacetate 0.02
# [40] = colorants Red No. 227 0.0001 + Yellow No. 5 0.0001, photostabilizer 0.02, no sequestering agent
# [41] = colorants Red No. 227 0.0001 + Yellow No. 203 0.0001, photostabilizer 0.05 + Sodium metaphosphate 0.02
# [42] = colorants Red No. 227 0.0001 + Yellow No. 203 0.0001, photostabilizer 0.05, no sequestering agent
# [43] = colorants Red No. 401 0.0001 + Blue No. 1 0.00001, photostabilizer 0.02 + Trisodium ethylenediamine tetraacetate 0.03
# [44] = colorants Red No. 401 0.0001 + Blue No. 1 0.00001, photostabilizer 0.02, no sequestering agent
# [45] = colorants Red No. 401 0.0001 + Green No. 3 0.00001, photostabilizer 0.02 + Sodium metaphosphate 0.03
# [46] = colorants Red No. 401 0.0001 + Green No. 3 0.00001, photostabilizer 0.02, no sequestering agent
# [47] = colorants Yellow No. 203 0.0001 + Yellow No. 5 0.0001, photostabilizer 0.02 + Sodium metaphosphate 0.01
# [48] = colorants Yellow No. 203 0.0001 + Yellow No. 5 0.0001, photostabilizer 0.02, no sequestering agent
smiles,measurement,setting,value
"Oc1nncc(N2CCOCC2)c1N1CCOCC1 [4,5-Dimorpholino-3-hydroxypyridazine]",Sunlight exposure (80 MJ) Appearance,[1],A
same,Sunlight exposure (80 MJ) ΔE,[1],1.00
same,Sunlight exposure (80 MJ) Appearance,[2],A
same,Sunlight exposure (80 MJ) ΔE,[2],1.18
same,Sunlight exposure (80 MJ) Appearance,[3],A
same,Sunlight exposure (80 MJ) ΔE,[3],1.08
same,Sunlight exposure (80 MJ) Appearance,[4],B
same,Sunlight exposure (80 MJ) ΔE,[4],1.74
same,Sunlight exposure (80 MJ) Appearance,[5],A
same,Sunlight exposure (80 MJ) ΔE,[5],0.28
same,Sunlight exposure (80 MJ) Appearance,[6],A
same,Sunlight exposure (80 MJ) ΔE,[6],0.52
same,Sunlight exposure (80 MJ) Appearance,[7],A
same,Sunlight exposure (80 MJ) ΔE,[7],0.48
same,Sunlight exposure (80 MJ) Appearance,[8],B
same,Sunlight exposure (80 MJ) ΔE,[8],0.75
same,Sunlight exposure (80 MJ) Appearance,[9],A
same,Sunlight exposure (80 MJ) ΔE,[9],0.77
same,Sunlight exposure (80 MJ) Appearance,[10],A
same,Sunlight exposure (80 MJ) ΔE,[10],0.85
same,Sunlight exposure (80 MJ) Appearance,[11],A
same,Sunlight exposure (80 MJ) ΔE,[11],0.84
same,Sunlight exposure (80 MJ) Appearance,[12],B
same,Sunlight exposure (80 MJ) ΔE,[12],1.23
same,Sunlight exposure (80 MJ) Appearance,[13],A
same,Sunlight exposure (80 MJ) ΔE,[13],1.38
same,Sunlight exposure (80 MJ) Appearance,[14],A
same,Sunlight exposure (80 MJ) ΔE,[14],1.45
same,Sunlight exposure (80 MJ) Appearance,[15],A
same,Sunlight exposure (80 MJ) ΔE,[15],1.41
same,Sunlight exposure (80 MJ) Appearance,[16],B
same,Sunlight exposure (80 MJ) ΔE,[16],2.12
same,Sunlight exposure (80 MJ) Appearance,[17],B
same,Sunlight exposure (80 MJ) ΔE,[17],0.84
same,Sunlight exposure (80 MJ) Appearance,[18],A
same,Sunlight exposure (80 MJ) ΔE,[18],0.62
same,Sunlight exposure (80 MJ) Appearance,[19],A
same,Sunlight exposure (80 MJ) ΔE,[19],0.58
same,Sunlight exposure (80 MJ) Appearance,[20],B
same,Sunlight exposure (80 MJ) ΔE,[20],0.98
same,Sunlight exposure (80 MJ) Appearance,[21],A
same,Sunlight exposure (80 MJ) ΔE,[21],0.66
same,Sunlight exposure (80 MJ) Appearance,[22],A
same,Sunlight exposure (80 MJ) ΔE,[22],0.78
same,Sunlight exposure (80 MJ) Appearance,[23],A
same,Sunlight exposure (80 MJ) ΔE,[23],0.71
same,Sunlight exposure (80 MJ) Appearance,[24],A
same,Sunlight exposure (80 MJ) ΔE,[24],0.95
same,Sunlight exposure (80 MJ) Appearance,[25],A
same,Sunlight exposure (80 MJ) ΔE,[25],0.36
same,Sunlight exposure (80 MJ) Appearance,[26],A
same,Sunlight exposure (80 MJ) ΔE,[26],0.33
same,Sunlight exposure (80 MJ) Appearance,[27],A
same,Sunlight exposure (80 MJ) ΔE,[27],0.32
same,Sunlight exposure (80 MJ) Appearance,[28],B
same,Sunlight exposure (80 MJ) ΔE,[28],0.61
same,Sunlight exposure (80 MJ) Appearance,[29],A
same,Sunlight exposure (80 MJ) ΔE,[29],0.22
same,Sunlight exposure (80 MJ) Appearance,[30],A
same,Sunlight exposure (80 MJ) ΔE,[30],0.28
same,Sunlight exposure (80 MJ) Appearance,[31],A
same,Sunlight exposure (80 MJ) ΔE,[31],0.25
same,Sunlight exposure (80 MJ) Appearance,[32],B
same,Sunlight exposure (80 MJ) ΔE,[32],0.95
same,Sunlight exposure (80 MJ) Appearance,[33],A
same,Sunlight exposure (80 MJ) ΔE,[33],0.98
same,Sunlight exposure (80 MJ) Appearance,[34],B
same,Sunlight exposure (80 MJ) ΔE,[34],1.33
same,Sunlight exposure (80 MJ) Appearance,[35],A
same,Sunlight exposure (80 MJ) ΔE,[35],0.75
same,Sunlight exposure (80 MJ) Appearance,[36],A
same,Sunlight exposure (80 MJ) ΔE,[36],1.10
same,Sunlight exposure (80 MJ) Appearance,[37],A
same,Sunlight exposure (80 MJ) ΔE,[37],1.22
same,Sunlight exposure (80 MJ) Appearance,[38],B
same,Sunlight exposure (80 MJ) ΔE,[38],1.88
same,Sunlight exposure (80 MJ) Appearance,[39],A
same,Sunlight exposure (80 MJ) ΔE,[39],0.71
same,Sunlight exposure (80 MJ) Appearance,[40],B
same,Sunlight exposure (80 MJ) ΔE,[40],1.02
same,Sunlight exposure (80 MJ) Appearance,[41],A
same,Sunlight exposure (80 MJ) ΔE,[41],1.01
same,Sunlight exposure (80 MJ) Appearance,[42],A
same,Sunlight exposure (80 MJ) ΔE,[42],1.55
same,Sunlight exposure (80 MJ) Appearance,[43],A
same,Sunlight exposure (80 MJ) ΔE,[43],0.88
same,Sunlight exposure (80 MJ) Appearance,[44],A
same,Sunlight exposure (80 MJ) ΔE,[44],1.36
same,Sunlight exposure (80 MJ) Appearance,[45],A
same,Sunlight exposure (80 MJ) ΔE,[45],0.73
same,Sunlight exposure (80 MJ) Appearance,[46],B
same,Sunlight exposure (80 MJ) ΔE,[46],1.45
same,Sunlight exposure (80 MJ) Appearance,[47],A
same,Sunlight exposure (80 MJ) ΔE,[47],0.48
same,Sunlight exposure (80 MJ) Appearance,[48],A
same,Sunlight exposure (80 MJ) ΔE,[48],0.78
same,color difference ΔE,"with a sequestering agent, compared with compositions not having a sequestering agent, Tables 24 to 26",very small
same,change of appearance of the composition,"with a sequestering agent, Tables 24 to 26",small
